# Reference: PMC11649397, “The study of halogen effect on the reactivity of the serine-targeting covalent warheads” (Frontiers in Chemistry, 2024)
# Molecular target: T1, hCES1A (Homo sapiens, UniProt P23141)
# T1 sequence (P23141 18-567): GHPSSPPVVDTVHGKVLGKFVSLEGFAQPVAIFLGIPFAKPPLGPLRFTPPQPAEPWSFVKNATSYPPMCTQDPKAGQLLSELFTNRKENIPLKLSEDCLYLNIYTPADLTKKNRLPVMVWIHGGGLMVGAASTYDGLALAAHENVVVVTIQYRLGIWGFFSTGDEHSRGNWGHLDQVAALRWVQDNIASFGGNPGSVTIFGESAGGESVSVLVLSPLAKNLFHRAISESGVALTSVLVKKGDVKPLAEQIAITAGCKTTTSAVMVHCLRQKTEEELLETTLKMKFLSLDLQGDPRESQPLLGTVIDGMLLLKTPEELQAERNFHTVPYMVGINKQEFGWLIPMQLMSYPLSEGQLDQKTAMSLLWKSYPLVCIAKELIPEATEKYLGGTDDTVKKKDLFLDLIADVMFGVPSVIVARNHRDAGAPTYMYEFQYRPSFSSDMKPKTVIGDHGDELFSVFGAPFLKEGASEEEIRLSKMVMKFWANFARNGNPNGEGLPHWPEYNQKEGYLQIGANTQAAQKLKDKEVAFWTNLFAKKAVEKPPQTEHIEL
# Experiment: Co-crystallography with hCES1A
# Type: binding
# Conditions: 1:5 molar ratio
# Experimental: Purified hCES1A incubated with F-3 and F-4 at 1:5 M ratio for 1 h at 18°C. Crystallisation screening was performed using commercially available kit sets using sitting drop vapor diffusion at 16°C. Both diffraction-quality crystals were obtained from the condition containing 14.4% peg8000 (w/v), 0.1M MES 6.4, 0.3M CaAc and 20% glycerol. Crystals were flash cooled in liquid nitrogen after cryoprotection in 25% glycerin. Date was collected on 02U1 at Shanghai Synchrotron Radiation Facility (SSRF). Data images were processed using program HKL2000. ([Otwinowski and Minor, 1997]). Crystal structures were solved using molecular replacement with the Phenix software suite using unbound hces1a (Protein Data Bank [PDB] accession number 1MX1 as the search model. Structure refinement was performed using Phenix. ([Adams et al., 2010]). The program COOT was used for manual rebuilding. ([Emsley and Cowtan, 2004]). Molecular graphics images were generated using CCP4MG. ([McNicholas et al., 2011]). […]
# fluorogenic probe. 4 Briefly, the incubation mixtures (0.1 mL) contained Tris-HCl buffer, hPL solution (0.25 μg/mL, final concentration), porcine bile salt (0.1 mg/mL, final concentration) and each inhibitor (with different concentrations). […] The fluorescent signals of hydrolytic product were quantified by using the microplate reader (Spectra Max M4, Austria), with the wavelength of 600 nm and 660 nm for excitation and emission, respectively. […]
# OPTS, a known fluorogenic probe, was used as the substrate to assess the residual activities of Notum in the presence of each tested compound. […] After preincubated at 37 °C for 1 min, OPTS was added to initiate the hydrolytic reaction and the multi-mode microplate reader (SpectraMax iD3, Molecular Devices, Austria) was used to analyze the florescence signals of the […]
# The F-3, F-4, F-10-bound peptides was analysed using the nanoLC-MS/MS system, respectively.6 The purified hCES1A (150 μg, final content) was co-incubated with the small molecule inhibitor F-3/ F-4/ F-10 (100 μM, final concentration) at 4 °C and 25 °C, respectively, for 4h. […]
smiles,measurement,value
"O=C(c1ccccc1)C(F)(F)F [F, 2,2,2-trifluoroacetophenone]",covalent binding mode at the catalytic triad (Ser221) in co-crystal,failed to result in similar covalent interactions
